Values joined by “and” are separate entries in the source; they are usually repeats but may differ in a detail not shown here. Identical values can stand only once. Like-named read-outs stand apart in the source and are kept apart here.
Columns and labels:
[1] = Distribution ratio female reproductive organs versus plasma after IV dosing; format: in vivo; details: C57Bl/6, mouse, female mice, 1 mg/kg IV; for Kp at 0.25 h: reproductive organs / plasma
Description: Samples were analyzed via electrospray ionization (ESI) LC-MS/MS on an AB Sciex 4500 (Foster City, CA) triple-quadrupole instrument that was coupled with an Agilent 1290 Infinity Binary Pump and multisampler (Santa Clara, CA) and concentrations (ng/mL or ng/g) were determined using a matrix-matched 10-point standard curve and then converted to nM concentrations. Quantitation of compounds was performed via AB Sciex Multiquant software using the raw analyte:IS peak area ratios. The typical detection range was 0.5 ng/mL to ≥5000 ng/mL utilizing a quadratic equation regression with 1/x² weighting. Correction for dilution of all tissue samples was performed postquantitation. The corrections for dilution in the extraction buffer employed correction factors specific to each tissue weight.
In-life phase–Compounds were formulated in PEG400:DMSO (4:1, v/v) at a concentration of 1 mg/mL and administered as a single 1 mg/kg dose (1 mL/kg) to female C57Bl/6 mice (n = 2–4; 30 g body weight) via intravenous (i.v.) injection. Blood samples were collected serially from a surgically implanted carotid artery catheter in each animal over multiple postadministration time points (0.25, 0.5, 1, 3, 6, and 24 h) into chilled, K2EDTA anticoagulant-fortified tubes and immediately placed on wet ice. The blood samples were stored at −80 °C until analysis by LC-MS/MS.
At the same time points, female reproductive organs were obtained by rapid dissection, rinsed with PBS, pooled by lots of 2 and immediately frozen in individual tissue collection boxes (dry ice). All tissues and blood samples were stored at −80 °C until analysis by LC-MS/MS.

Bradykinin B2 = Bradykinin B2 (Homo sapiens, UniProt P30411); test: LeadProfilingScreen radioligand binding
Dopamine D1 = Dopamine D1 (Homo sapiens, UniProt P21728); test: LeadProfilingScreen radioligand binding
Sequence of Dopamine D1 (P21728 whole entry): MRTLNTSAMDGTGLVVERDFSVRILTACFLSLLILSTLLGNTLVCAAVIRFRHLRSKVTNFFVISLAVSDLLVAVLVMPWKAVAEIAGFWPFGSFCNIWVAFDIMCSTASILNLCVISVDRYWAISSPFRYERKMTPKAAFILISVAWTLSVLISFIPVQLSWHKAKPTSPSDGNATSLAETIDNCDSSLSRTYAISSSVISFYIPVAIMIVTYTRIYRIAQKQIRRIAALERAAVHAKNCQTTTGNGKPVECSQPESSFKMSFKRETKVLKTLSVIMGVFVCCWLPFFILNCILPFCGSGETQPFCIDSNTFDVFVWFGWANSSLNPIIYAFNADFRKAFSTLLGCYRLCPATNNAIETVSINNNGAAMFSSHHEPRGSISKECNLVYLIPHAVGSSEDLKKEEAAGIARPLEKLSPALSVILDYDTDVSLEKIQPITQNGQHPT

[2] = Multispecies hepatocyte MetID; format: in vitro ADME, human; details: 4 h incubation with hepatocytes, 10 μM
Description: Metabolites were identified after preincubating each compound at a 10 μM final concentration with 2.5 × 10^5 hepatocytes from human, dog, cynomolgus monkey, and rat in 200 μL of Optiincubate buffer (BioIVT, Westbury, NY). […] After centrifugation, 60 μL of the supernatant was transferred to 60 μL of water for LC-MS analysis. Samples were analyzed using a Thermo Scientific Vanquish UHPLC consisting of a VH-P10-A pump, a VH-A10-A sampler module, a VH-C10-A column compartment, and the VF-D11-A UV detector coupled to an Orbitrap Fusion Lumos instrument with UVPD. A binary solvent system consisting of (A) water with 0.1% formic acid and (B) acetonitrile with 0.1% formic acid was used with an Accucore Vanquish C18+, 2.1 mm × 100 mm, 1.5 μm, UHPLC column maintained at 40 °C. The data generated by data-dependent acquisition via normal acquisition and AcquireX were processed manually with Thermo Scientific FreeStyle and assisted by Compound Discoverer 3.3.1.111 to aid in the structural assignments.

Neuropeptide Y Y1 = Neuropeptide Y Y1 (Homo sapiens, UniProt P25929); test: LeadProfilingScreen radioligand binding
Sequence of Neuropeptide Y Y1 (P25929 whole entry): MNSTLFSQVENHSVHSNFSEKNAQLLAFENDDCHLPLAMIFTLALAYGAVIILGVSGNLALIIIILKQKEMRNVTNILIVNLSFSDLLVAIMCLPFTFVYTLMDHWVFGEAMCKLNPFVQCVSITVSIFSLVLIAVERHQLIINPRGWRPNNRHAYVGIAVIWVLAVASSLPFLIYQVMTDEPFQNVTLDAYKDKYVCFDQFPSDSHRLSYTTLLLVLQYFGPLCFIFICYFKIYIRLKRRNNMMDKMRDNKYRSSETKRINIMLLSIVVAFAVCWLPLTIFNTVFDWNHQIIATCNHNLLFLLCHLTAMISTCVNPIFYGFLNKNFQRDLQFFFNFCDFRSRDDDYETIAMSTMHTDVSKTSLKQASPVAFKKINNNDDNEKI

[3] = tested on: human sperm hyperactivated motility; test: Human sperm motility by CASA; format: cell-based; details: for inhibition of human sperm hyperactivated motility, incubation: 10 μM during 2 h in capacitation media; for inhibition of human sperm hyperactivated motility, acute / inhibition at 10 µM: 10 μM for 1 min after 2 h capacitation; for effect on progressive motility of human sperm / effect on total motility of human sperm: 10 μM, acute; for inhibition at 10 µM: Homo sapiens, Sperm, read-out: inhibition of human sperm hyperactivated motility, acute
Description: Human sperm samples were obtained by masturbation from deidentified patients after 3 to 5 days of abstinence. The Washington University Fertility and Reproductive Medicine Center confirmed that they met normal semen parameters according to the World Health Organization (≥15 million sperm per mL, ≥40% total motility, ≥32% progressive motility). Samples were allowed to liquefy for 1 h at room temperature. Sperm were purified by the swim-up method as previously described. , Briefly, within 2 h of production, sperm were allowed to swim up in noncommercial human tubular fluid medium (HTF; 98 mM NaCl, 4.7 mM KCl, 0.4 mM KH2PO4, 2 mM CaCl2, 0.2 mM MgSO4, 20 mM HEPES, 3 mM glucose, 21 mM lactic acid, 0.3 mM sodium pyruvate, pH adjusted to 7.4 with NaOH, 285 mmol/kg osmolarity measured with a VAPRO Vapor Pressure Osmometer 5600, ELITechGroup, Belgium) for 1 h at 37 °C without CO2.
Human sperm collected by swim-up were incubated in capacitating media (HTF + 5 mg/mL of BSA + 25 mM NaHCO3 for 2 h). After this incubation hyperactivated motility was measured by computer-assisted sperm analysis (CASA) as previously described. Briefly, 3 μL of sperm suspension was loaded in a 20-μm Leja standard count four-chamber slide. Motility was measured with a HTR-CEROS II v.1.7 (Hamilton-Thorne Research). Sperm were classified as hyperactivated if they met the following criteria: curvilinear velocity (VCL) > 150 μm/s, lateral head displacement (ALH) > 7.0 μm, and linearity coefficient (LIN) < 50%. For acute inhibition experiments, 10 μM of our compound of interest was added for 1 min prior to recording motility. For inhibitor incubation experiments, the compound of interest or DMSO was added during the 2 h incubation in capacitating media.

CYP3A4 = CYP3A4 (Homo sapiens, UniProt P08684); test: CYP450 inhibition; format: in vitro ADME; details: read-out: CYP450 Inhibition, 3A4
Sequence of CYP3A4 (P08684 whole entry, species assumed): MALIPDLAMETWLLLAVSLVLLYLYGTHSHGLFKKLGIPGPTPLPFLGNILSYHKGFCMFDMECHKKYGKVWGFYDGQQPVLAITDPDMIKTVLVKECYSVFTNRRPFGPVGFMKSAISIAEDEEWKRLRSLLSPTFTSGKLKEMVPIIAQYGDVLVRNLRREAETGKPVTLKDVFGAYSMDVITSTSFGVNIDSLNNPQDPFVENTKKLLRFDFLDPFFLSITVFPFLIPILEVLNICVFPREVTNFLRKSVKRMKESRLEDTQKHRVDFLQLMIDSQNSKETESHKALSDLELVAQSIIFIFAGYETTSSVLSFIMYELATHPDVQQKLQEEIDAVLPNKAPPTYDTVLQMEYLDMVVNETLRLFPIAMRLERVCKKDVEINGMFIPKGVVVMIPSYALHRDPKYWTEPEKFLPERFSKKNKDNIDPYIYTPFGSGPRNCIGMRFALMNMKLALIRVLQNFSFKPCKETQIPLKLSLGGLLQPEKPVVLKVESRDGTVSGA

Adrenergic α1A = Adrenergic α1A (Homo sapiens, UniProt P35348); test: LeadProfilingScreen radioligand binding
Sequence of Adrenergic α1A (P35348 whole entry): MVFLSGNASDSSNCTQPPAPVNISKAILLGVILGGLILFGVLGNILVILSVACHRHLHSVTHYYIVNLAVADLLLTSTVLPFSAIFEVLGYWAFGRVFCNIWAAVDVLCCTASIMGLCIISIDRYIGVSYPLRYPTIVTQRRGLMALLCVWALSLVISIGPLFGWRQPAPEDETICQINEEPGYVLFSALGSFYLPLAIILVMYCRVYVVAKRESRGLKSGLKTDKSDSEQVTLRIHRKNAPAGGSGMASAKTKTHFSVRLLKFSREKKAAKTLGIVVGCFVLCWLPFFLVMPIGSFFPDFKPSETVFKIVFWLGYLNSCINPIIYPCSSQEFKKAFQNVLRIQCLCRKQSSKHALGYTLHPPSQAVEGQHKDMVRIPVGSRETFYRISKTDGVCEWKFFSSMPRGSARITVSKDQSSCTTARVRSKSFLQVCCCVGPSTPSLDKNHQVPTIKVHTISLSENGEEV

Muscarinic M1 = Muscarinic M1 (Homo sapiens, UniProt P11229); test: LeadProfilingScreen radioligand binding
Sequence of Muscarinic M1 (P11229 whole entry): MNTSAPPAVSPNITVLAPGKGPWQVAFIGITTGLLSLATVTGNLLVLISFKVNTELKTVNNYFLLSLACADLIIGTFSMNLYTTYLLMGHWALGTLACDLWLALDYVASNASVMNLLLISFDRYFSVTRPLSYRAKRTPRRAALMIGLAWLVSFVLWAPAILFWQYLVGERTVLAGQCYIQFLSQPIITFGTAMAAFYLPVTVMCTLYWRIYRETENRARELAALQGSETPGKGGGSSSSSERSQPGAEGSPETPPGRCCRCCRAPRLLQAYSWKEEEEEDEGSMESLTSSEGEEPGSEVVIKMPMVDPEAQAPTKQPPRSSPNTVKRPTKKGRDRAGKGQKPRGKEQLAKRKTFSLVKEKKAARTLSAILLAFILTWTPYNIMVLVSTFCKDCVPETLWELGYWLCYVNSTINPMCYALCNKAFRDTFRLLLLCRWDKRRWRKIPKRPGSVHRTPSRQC

hERG potassium channel = hERG potassium channel (Homo sapiens, UniProt Q12809); test: LeadProfilingScreen radioligand binding; details: probe [3H]Dofetilide
Sequence of hERG potassium channel (Q12809 whole entry): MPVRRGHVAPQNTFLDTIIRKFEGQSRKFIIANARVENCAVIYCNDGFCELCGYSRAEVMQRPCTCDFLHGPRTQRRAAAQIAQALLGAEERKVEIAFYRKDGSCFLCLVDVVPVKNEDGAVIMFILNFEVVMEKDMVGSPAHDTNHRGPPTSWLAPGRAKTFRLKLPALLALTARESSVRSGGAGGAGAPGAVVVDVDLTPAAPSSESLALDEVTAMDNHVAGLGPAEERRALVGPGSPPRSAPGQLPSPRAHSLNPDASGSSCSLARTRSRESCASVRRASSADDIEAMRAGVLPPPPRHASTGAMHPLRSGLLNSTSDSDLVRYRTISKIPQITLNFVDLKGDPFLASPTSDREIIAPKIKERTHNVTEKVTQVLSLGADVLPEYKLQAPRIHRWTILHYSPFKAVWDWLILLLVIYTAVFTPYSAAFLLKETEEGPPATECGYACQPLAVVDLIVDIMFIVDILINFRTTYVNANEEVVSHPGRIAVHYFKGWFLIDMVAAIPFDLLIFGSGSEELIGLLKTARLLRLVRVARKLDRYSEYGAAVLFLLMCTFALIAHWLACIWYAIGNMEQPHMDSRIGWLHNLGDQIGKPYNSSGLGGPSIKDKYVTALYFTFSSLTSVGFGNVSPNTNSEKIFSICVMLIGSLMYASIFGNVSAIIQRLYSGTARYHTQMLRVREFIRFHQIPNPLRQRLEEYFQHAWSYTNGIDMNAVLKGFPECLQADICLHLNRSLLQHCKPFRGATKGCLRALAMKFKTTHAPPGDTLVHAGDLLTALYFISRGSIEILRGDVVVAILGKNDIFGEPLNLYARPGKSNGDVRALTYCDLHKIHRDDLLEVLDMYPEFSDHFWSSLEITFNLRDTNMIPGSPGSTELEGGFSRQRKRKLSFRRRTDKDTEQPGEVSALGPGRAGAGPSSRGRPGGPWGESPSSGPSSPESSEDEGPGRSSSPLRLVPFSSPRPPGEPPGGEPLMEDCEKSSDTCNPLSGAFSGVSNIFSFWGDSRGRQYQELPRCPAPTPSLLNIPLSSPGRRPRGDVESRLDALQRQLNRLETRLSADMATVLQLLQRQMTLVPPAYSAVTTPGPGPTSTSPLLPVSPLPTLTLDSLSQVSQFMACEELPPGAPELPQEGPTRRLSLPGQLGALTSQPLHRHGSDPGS

CYP2D6 = CYP2D6 (Homo sapiens, UniProt P10635); test: CYP450 inhibition; format: in vitro ADME; details: read-out: CYP450 Inhibition, 2D6
Sequence of CYP2D6 (P10635 whole entry, species assumed): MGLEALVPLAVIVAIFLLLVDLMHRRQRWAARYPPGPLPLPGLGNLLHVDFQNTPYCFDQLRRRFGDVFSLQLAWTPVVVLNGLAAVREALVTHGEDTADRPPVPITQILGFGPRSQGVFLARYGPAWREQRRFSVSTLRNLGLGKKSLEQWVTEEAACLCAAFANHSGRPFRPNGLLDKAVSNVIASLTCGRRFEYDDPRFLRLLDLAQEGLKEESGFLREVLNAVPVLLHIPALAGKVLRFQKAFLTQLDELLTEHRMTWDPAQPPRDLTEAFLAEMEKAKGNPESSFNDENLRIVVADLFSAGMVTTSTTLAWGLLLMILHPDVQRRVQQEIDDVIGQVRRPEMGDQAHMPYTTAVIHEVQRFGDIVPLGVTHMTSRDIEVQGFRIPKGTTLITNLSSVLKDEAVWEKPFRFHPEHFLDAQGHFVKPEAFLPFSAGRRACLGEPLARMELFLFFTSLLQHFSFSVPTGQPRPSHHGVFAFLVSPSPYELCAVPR

Glucocorticoid = Glucocorticoid (Homo sapiens, UniProt P04150); test: LeadProfilingScreen radioligand binding
CYP1A2 = CYP1A2 (Homo sapiens, UniProt P05177); test: CYP450 inhibition; format: in vitro ADME; details: read-out: CYP450 Inhibition, 1A2
Sequence of CYP1A2 (P05177 whole entry, species assumed): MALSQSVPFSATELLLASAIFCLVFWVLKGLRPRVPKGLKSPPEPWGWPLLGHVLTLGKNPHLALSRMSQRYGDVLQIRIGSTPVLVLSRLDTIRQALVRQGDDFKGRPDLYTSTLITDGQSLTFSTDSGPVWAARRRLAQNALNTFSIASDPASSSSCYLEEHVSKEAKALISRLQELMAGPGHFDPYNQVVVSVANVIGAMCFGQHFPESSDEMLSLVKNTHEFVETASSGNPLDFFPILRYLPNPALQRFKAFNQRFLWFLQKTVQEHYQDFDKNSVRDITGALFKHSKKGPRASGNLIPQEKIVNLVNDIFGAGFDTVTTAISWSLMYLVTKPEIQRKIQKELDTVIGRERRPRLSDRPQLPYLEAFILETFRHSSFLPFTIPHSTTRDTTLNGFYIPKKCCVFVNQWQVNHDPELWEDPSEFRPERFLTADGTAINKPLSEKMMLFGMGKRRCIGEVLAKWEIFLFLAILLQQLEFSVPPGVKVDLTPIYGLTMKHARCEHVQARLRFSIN

[4] = Multispecies hepatocyte MetID; format: in vitro ADME, minipig; details: 4 h incubation with hepatocytes, 10 μM
[5] = target: Serotonin (5-Hydroxytryptamine) 5-HT2B (Homo sapiens, UniProt P41595); test: LeadProfilingScreen radioligand binding
Sequence of Serotonin (5-Hydroxytryptamine) 5-HT2B (P41595 whole entry): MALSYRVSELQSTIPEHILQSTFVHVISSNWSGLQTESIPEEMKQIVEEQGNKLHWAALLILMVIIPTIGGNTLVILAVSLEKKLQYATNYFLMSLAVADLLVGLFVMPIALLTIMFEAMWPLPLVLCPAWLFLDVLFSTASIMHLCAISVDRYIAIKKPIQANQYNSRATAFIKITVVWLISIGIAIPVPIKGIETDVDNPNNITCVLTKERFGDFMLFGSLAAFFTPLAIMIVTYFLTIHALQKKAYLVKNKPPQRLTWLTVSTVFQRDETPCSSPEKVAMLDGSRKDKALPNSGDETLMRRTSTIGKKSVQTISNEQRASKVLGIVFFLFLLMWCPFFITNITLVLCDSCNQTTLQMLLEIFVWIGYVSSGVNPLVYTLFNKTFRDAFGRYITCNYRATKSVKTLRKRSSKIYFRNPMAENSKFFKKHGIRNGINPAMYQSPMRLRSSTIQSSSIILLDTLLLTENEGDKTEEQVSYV

[6] = female reproductive organs (pooled), pooled organs, read-out: Reproductive Organs concentration
[7] = plasma, read-out: Plasma concentration

SMILES: O=C(c1ccc(OCc2ccc(OC(F)(F)F)cc2)cc1)N1CCN(c2ccc(C(F)(F)F)cn2)CC1 [VU6032735]
- concentration at 0.25 h [1, 6]: 1070 ng/mL
- concentration at 0.25 h [1, 7]: 85.3 ng/mL
- Kp at 0.25 h [1]: 12.7
- inhibition at 10 µM (Bradykinin B2): -1%
- inhibition at 10 µM (Dopamine D1): 12%
- % of Parent Related Material, Human [2]: > 98%
- inhibition at 10 µM (Neuropeptide Y Y1): -1%
- inhibition of human sperm hyperactivated motility, incubation [3]: 50%
- inhibition of human sperm hyperactivated motility, acute [3]: > 70%
- effect on progressive motility of human sperm [3]: without changing
- effect on total motility of human sperm [3]: without changing
- inhibition at 10 µM [3]: 76%
- IC50 (CYP3A4): > 30 µM
- inhibition at 10 µM (Adrenergic α1A): -1%
- inhibition at 10 µM (Muscarinic M1): -8%
- inhibition at 10 µM (hERG potassium channel): 9%
- IC50 (CYP2D6): > 30 µM
- inhibition at 10 µM (Glucocorticoid): 10%
- IC50 (CYP1A2): > 30 µM
- % of Parent Related Material, Pig [4]: > 98%
- inhibition at 10 µM [5]: -6%

SMILES: Cc1cc(Cl)cc2sc(O[C@H]3CCN(C(=O)CCCS(=O)(=O)c4cccc(Br)c4)C[C@H]3F)nc12 [VU6047606]
- concentration at 0.25 h [1, 6]: 56.6 ng/mL
- concentration at 0.25 h [1, 7]: 121 ng/mL
- Kp at 0.25 h [1]: 0.47
- inhibition at 10 µM (Bradykinin B2): 4%
- inhibition at 10 µM (Dopamine D1): 25%
- % of Parent Related Material, Human [2]: 91.66% and > 82%
- inhibition at 10 µM (Neuropeptide Y Y1): -16%
- inhibition of human sperm hyperactivated motility, incubation [3]: 61%
- inhibition of human sperm hyperactivated motility, acute [3]: > 70%
- effect on progressive motility of human sperm [3]: without changing
- effect on total motility of human sperm [3]: without changing
- inhibition at 10 µM [3]: 71%
- IC50 (CYP3A4): > 30 µM
- inhibition at 10 µM (Adrenergic α1A): 4%
- inhibition at 10 µM (Muscarinic M1): 6%
- inhibition at 10 µM (hERG potassium channel): 72%
- IC50 (CYP2D6): > 30 µM
- inhibition at 10 µM (Glucocorticoid): 18%
- IC50 (CYP1A2): > 30 µM
- % of Parent Related Material, Pig [4]: 93.66% and > 82%
- inhibition at 10 µM [5]: 18%

Reference: PMC12441834, “Highly Potent and Subtype-Selective Sperm-Specific Potassium Channel SLO3 Inhibitors Display High Tissue Exposure in the Murine Female Reproductive Tract” (ACS Pharmacology & Translational Science, 2025)
